Measured values published in publication PMC9525679, “Inositol hexakisphosphate is required for Integrator function” (Nature Communications, 2022).
Values belong to the molecule of their own block, whether it stands above or below them.

Assays:
[1] = target: T1, Drosophila IntS4-IntS9-IntS11 complex (Drosophila ICM, Integrator cleavage module) (Drosophila melanogaster, UniProt Q95TS5+Q9VAH9+Q9W3E1, Q9VAH9:K462E); assay: LC-MS/MS of co-purified ligand; format: binding; conditions: ligand co-purified from insect cells, none added; site mutant, gel filtration profile comparable to wild type
T1 construct: IntS4 (N-terminal 6xHis), IntS9 and IntS11 co-expressed in Tni insect cells; IP6 co-purified from the host; free IntS9 N-terminus contacts IP6

[2] = target: T2, human INTS4-INTS9-INTS11 complex (human ICM) (Homo sapiens, UniProt Q5TA45+Q96HW7+Q9NV88, Q9NV88:K510E/Q9NV88:R511E); assay: LC-MS/MS of co-purified ligand; format: binding; conditions: ligand co-purified from insect cells, none added; site mutant, gel filtration profile comparable to wild type
T2 construct: three-subunit complex purified from insect cell expression

[3] = target: T3, human INTS4-INTS9-INTS11 complex (human ICM) (Homo sapiens, UniProt Q5TA45+Q96HW7+Q9NV88, Q5TA45:K462E); assay: LC-MS/MS of co-purified ligand; format: binding; conditions: ligand co-purified from insect cells, none added; site mutant, gel filtration profile comparable to wild type
T3 construct: three-subunit complex purified from insect cell expression

[4] = target: T4, Drosophila IntS4-IntS9-IntS11 complex (Drosophila ICM, Integrator cleavage module) (Drosophila melanogaster, UniProt Q95TS5+Q9VAH9+Q9W3E1); assay: cryo-EM structure ([…] Å); LC-MS/MS of co-purified ligand; format: binding; conditions: ligand co-purified from insect cells, none added; site at interface of IntS4, IntS9 and IntS11, 55 Å from the IntS11 active site
T4 construct: IntS4 (N-terminal 6xHis), IntS9 and IntS11 co-expressed in Tni insect cells; IP6 co-purified from the host; free IntS9 N-terminus contacts IP6

[5] = target: T5, human INTS4-INTS9-INTS11 complex (human ICM) (Homo sapiens, UniProt Q5TA45+Q96HW7+Q9NV88); assay: LC-MS/MS of co-purified ligand; IP6 also fitted into published human ICM map (EMDB […]); format: binding; conditions: ligand co-purified from insect cells, none added
T5 construct: three-subunit complex purified from insect cell expression

[6] = target: T6, Drosophila IntS9, subunit of the Integrator cleavage module (Drosophila (D. melanogaster), UniProt Q95TS5 1-654); assay: SEC; gel filtration (Hiload 16/60 Superdex 200) of wild-type and K462E mutant Drosophila ICM co-expressed in insect cells, after nickel affinity; SDS gel of the complex; conditions: both partners purified
T6 construct: Integrator complex subunit 9 (IntS9), Drosophila; Cloned into the pFL acceptor vector together with IntS11; no tag is stated; also called Integrator subunit 9
T6 sequence: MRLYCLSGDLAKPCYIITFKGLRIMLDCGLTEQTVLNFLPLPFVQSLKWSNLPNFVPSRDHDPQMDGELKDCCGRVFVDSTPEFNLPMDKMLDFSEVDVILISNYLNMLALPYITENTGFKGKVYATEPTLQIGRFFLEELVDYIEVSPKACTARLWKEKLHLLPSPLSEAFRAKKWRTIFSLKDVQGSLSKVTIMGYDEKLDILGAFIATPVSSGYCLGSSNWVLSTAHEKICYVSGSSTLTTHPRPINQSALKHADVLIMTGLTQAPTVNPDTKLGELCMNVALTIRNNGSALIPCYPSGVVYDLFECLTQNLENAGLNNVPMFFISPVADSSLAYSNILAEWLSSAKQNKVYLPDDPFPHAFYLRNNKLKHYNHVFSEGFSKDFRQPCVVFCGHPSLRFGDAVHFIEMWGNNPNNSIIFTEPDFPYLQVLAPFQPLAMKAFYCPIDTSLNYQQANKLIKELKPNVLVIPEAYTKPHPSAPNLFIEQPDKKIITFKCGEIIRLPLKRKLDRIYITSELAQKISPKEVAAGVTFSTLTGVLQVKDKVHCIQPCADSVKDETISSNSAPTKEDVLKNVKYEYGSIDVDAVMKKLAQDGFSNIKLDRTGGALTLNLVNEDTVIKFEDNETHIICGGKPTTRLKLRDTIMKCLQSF

[7] = target: T7, Drosophila IntS4 (N-terminal 6xHis-tagged), subunit of the Integrator cleavage module (Drosophila (D. melanogaster), UniProt Q9W3E1 1-1022); assay: as above; conditions: both partners purified
T7 construct: Integrator complex subunit 4 (IntS4), Drosophila; Residues beyond 570 (CTD) were not modelled in the structure; also called Integrator subunit 4
T7 sequence: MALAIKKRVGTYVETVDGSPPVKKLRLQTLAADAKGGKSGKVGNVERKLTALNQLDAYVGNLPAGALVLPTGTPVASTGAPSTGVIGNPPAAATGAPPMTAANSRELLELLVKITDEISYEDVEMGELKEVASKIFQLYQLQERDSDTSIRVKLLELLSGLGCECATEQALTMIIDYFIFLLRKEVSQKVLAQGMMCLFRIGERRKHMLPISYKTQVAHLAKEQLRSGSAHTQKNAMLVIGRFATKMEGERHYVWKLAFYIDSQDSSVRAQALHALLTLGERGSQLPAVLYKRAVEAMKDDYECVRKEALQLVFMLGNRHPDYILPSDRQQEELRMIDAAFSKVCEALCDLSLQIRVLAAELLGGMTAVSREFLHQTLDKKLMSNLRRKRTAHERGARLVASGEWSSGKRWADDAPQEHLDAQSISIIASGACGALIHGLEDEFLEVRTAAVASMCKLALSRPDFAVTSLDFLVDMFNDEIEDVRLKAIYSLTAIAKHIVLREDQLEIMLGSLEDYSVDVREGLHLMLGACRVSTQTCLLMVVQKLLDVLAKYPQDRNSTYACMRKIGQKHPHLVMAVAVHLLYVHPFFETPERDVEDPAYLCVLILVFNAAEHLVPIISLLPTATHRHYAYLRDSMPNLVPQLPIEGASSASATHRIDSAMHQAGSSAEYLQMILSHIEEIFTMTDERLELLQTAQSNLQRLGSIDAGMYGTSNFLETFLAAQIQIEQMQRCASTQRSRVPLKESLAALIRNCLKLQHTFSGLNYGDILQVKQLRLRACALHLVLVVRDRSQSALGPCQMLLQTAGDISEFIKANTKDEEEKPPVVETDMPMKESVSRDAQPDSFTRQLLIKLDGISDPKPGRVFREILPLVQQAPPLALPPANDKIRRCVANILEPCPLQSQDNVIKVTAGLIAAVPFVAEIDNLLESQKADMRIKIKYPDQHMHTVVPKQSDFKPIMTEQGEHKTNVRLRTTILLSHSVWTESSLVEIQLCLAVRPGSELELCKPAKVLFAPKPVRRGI

T3 sequence (Q96HW7 whole entry): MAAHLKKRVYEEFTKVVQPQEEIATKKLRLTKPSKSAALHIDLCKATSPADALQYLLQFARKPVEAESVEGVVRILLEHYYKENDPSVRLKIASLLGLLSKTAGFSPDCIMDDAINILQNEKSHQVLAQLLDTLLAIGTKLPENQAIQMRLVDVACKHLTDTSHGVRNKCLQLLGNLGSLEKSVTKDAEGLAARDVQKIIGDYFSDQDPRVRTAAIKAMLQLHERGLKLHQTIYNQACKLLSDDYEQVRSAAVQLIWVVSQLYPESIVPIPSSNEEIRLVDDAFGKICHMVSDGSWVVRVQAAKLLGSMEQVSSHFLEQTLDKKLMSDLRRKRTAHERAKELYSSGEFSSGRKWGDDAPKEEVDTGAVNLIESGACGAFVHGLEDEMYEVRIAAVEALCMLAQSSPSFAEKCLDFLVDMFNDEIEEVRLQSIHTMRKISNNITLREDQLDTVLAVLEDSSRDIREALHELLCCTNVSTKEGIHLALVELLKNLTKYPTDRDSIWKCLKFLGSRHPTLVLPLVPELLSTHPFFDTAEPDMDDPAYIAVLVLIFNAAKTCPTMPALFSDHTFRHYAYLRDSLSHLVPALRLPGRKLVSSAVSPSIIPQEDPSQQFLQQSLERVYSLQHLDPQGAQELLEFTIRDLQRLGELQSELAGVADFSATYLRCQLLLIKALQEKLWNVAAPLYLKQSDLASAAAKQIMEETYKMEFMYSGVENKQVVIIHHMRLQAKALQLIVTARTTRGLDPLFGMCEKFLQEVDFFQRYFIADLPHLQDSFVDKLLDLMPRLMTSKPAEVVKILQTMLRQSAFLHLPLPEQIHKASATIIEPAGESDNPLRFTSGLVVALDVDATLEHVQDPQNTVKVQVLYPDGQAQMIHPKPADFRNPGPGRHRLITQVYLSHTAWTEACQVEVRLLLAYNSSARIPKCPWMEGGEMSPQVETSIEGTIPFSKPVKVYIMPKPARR
T3 sequence (Q9NV88 whole entry): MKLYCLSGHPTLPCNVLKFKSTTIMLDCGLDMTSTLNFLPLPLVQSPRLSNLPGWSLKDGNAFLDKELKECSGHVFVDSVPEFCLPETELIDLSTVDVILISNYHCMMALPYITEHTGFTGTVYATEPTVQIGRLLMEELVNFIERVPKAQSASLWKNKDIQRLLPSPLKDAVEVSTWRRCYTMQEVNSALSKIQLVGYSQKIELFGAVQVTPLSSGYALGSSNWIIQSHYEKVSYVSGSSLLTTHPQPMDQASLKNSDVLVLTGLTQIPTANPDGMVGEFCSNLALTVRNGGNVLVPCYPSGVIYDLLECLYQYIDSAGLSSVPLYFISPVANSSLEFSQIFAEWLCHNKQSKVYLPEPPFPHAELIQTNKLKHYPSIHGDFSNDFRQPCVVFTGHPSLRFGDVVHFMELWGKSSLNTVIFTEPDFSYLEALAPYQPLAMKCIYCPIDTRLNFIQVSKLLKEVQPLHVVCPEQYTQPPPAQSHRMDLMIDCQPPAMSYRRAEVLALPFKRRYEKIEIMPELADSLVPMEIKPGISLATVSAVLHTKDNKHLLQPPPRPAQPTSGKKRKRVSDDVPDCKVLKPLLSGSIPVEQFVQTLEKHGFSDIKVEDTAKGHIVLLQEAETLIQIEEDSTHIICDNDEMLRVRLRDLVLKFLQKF
T3 sequence (Q5TA45 whole entry K462E): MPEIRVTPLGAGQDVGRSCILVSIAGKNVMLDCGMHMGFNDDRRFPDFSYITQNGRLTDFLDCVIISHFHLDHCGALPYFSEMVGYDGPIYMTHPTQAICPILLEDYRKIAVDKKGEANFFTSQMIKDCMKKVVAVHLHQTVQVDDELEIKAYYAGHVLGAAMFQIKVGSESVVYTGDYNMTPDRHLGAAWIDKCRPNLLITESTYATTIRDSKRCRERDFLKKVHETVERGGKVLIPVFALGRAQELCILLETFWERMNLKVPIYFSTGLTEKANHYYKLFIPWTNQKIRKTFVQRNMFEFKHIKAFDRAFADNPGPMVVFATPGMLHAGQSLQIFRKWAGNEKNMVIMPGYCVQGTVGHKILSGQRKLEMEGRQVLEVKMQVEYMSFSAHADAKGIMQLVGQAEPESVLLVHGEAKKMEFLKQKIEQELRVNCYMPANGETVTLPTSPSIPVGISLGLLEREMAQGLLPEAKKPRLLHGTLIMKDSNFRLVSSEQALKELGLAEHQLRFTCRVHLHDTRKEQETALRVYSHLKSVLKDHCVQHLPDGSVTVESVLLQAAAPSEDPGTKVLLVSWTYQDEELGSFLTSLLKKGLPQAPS
T2 sequence (Q96HW7 whole entry): as the sequence (Q96HW7 whole entry) above
T2 sequence (Q9NV88 whole entry K510E/R511E): as the sequence (Q9NV88 whole entry) above, with K510E, R511E counted along it
T2 sequence (Q5TA45 whole entry): as the sequence (Q5TA45 whole entry K462E) above, with E462K counted along it
T5 sequence (Q96HW7 whole entry): as the sequence (Q96HW7 whole entry) above
T5 sequence (Q9NV88 whole entry): as the sequence (Q9NV88 whole entry) above
T5 sequence (Q5TA45 whole entry): as the sequence (Q5TA45 whole entry K462E) above, with E462K counted along it
T4 sequence (Q9VAH9 whole entry, one chain of several): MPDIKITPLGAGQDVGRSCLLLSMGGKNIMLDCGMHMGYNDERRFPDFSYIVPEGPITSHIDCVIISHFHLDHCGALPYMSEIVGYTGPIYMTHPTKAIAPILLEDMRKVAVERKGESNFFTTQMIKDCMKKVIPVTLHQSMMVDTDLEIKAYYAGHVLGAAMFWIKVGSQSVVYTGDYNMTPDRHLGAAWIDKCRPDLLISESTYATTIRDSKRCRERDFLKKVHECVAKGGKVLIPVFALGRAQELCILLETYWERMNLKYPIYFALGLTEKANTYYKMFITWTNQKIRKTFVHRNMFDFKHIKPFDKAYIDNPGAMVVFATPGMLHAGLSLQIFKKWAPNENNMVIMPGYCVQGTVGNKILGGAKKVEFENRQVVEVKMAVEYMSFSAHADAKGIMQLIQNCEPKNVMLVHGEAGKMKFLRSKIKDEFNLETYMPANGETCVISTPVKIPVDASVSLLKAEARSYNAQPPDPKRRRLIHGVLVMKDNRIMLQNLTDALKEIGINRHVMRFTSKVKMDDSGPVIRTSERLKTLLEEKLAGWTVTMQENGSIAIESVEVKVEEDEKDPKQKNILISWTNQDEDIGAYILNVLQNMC

Molecule: O=P(O)(O)O[C@H]1[C@H](OP(=O)(O)O)[C@@H](OP(=O)(O)O)[C@H](OP(=O)(O)O)[C@@H](OP(=O)(O)O)[C@H]1OP(=O)(O)O [inositol hexakisphosphate]
- IP6 detection [1]: we failed to detect IP6 in our mass spectrometry experiments on them
- IP6 detection [2]: human ICM sample containing the K510E/R511E double mutation in IntS9
- IP6 detection [3]: we failed to detect IP6 in our mass spectrometry experiments on them
- cryo-EM structure (2.74 Å); LC-MS/MS of co-purified ligand [4]: The structure of Drosophila ICM unexpectedly revealed the presence of an inositol hexakisphosphate (IP6) molecule
- LC-MS/MS of co-purified ligand; IP6 also fitted into published human ICM map (EM) [5]: confirm by mass spectrometry the binding of IP6 to wild-type human or Drosophila ICM samples

- binding result [6]: binds
- binding result [7]: binds
B1: Drosophila IntS11 K462E (in the K462E mutant Drosophila ICM) (enzyme, Drosophila (D. melanogaster))
chain: MPDIKITPLGAGQDVGRSCLLLSMGGKNIMLDCGMHMGYNDERRFPDFSYIVPEGPITSHIDCVIISHFHLDHCGALPYMSEIVGYTGPIYMTHPTKAIAPILLEDMRKVAVERKGESNFFTTQMIKDCMKKVIPVTLHQSMMVDTDLEIKAYYAGHVLGAAMFWIKVGSQSVVYTGDYNMTPDRHLGAAWIDKCRPDLLISESTYATTIRDSKRCRERDFLKKVHECVAKGGKVLIPVFALGRAQELCILLETYWERMNLKYPIYFALGLTEKANTYYKMFITWTNQKIRKTFVHRNMFDFKHIKPFDKAYIDNPGAMVVFATPGMLHAGLSLQIFKKWAPNENNMVIMPGYCVQGTVGNKILGGAKKVEFENRQVVEVKMAVEYMSFSAHADAKGIMQLIQNCEPKNVMLVHGEAGKMKFLRSKIKDEFNLETYMPANGETCVISTPVKIPVDASVSLLEAEARSYNAQPPDPKRRRLIHGVLVMKDNRIMLQNLTDALKEIGINRHVMRFTSKVKMDDSGPVIRTSERLKTLLEEKLAGWTVTMQENGSIAIESVEVKVEEDEKDPKQKNILISWTNQDEDIGAYILNVLQNMC
notes: Integrator complex subunit 11 (IntS11), Drosophila, with K462E; also called K462E mutant of Drosophila ICM; source: insect cells, purified as ICM sample
